Read-outs that look alike come from different tables or passages of the source. One block for each compound: values may come before it.
Columns and labels:
[1] = tested on: ESO26 (GEJ) cancer cell line; experiment: Combination with genotoxic agents, viability (Mixtures analysis); type: cell-based; details: single agent IC50 on which the mixtures were based
Method: (§1) The cell-based experiments and assays were performed with either molecule but not always with both. Compounds (1) and (2) were generally very similar in those assays and experiments. Analysis of the combination experiments was performed using two methods: the Bliss Additivity model and the Mixtures Blend method to determine the degree of synergy, additivity, or antagonism. In the Bliss method, a matrix of Bliss scores was generated for each cell line and treatment, and a sum of the Bliss values over the range of combination concentrations tested was calculated. […] Larger average Bliss values indicate greater confidence in reporting synergy, and smaller scores indicate greater confidence in reporting antagonism. In the Mixtures Blend method combinants were added in a range of optimal ratios using design of experiment (DOE) software (DX-8 from STAT-EASE); the cells were irradiated with 2 Gy as required. Synergy was determined using statistical analysis of the data (ANOVA) to indicate linear (additivity) or statistically significant (p<0.1) non-linear (antagonism or synergy) mixes of the combinants.

MDA-MB-468 = experiment: Doxorubicin combination in triple negative breast cancer cells; type: cell-based; details: Homo sapiens, BRCA wild-type
Method: as §1

MDA-MB-436 = experiment: as above; type: cell-based; details: Homo sapiens, BRCA mutant
Method: as §1

HCC-1395 = experiment: as above; type: cell-based; details: Homo sapiens, HCC1395, read-out: Doxorubicin IC50 (μM); plating density 5000; BRCA mutant
Method: as §1

HCC-1599 = experiment: as above; type: cell-based; details: Homo sapiens, HCC1599, read-out: Doxorubicin IC50 (μM); plating density unknown; BRCA mutant
Method: as §1

HCC-1937 = experiment: as above; type: cell-based; details: Homo sapiens, BRCA mutant
Method: as §1

[2] = Two stage dissolution (FaSSGF then FaSSIF); type: physicochemical; details: 37° C., compared with free form
Method: Two stage dissolution experiments were performed at least in duplicate. Fasted state simulated gastric fluid (FaSSGF) was equilibrated for 30 minutes under stirring to 37° C. in a 100 ml clear class vial using a water bath consisting of a temperature controlled jacketed vessel. The compound 1:adipic acid co-crystal and compound 2:adipic acid co-crystal was added and the suspension was stirred at about 130 rpm and 37° C., respectively. Aliquots (0.5 ml) were taken at 5, 15, 30, and 60 minutes. Solids were separated by filter centrifugation using centrifuge filter units with a 0.45 μm membrane and spinning at 5000 rpm for 5 minutes on an Eppendorff Model 5418 centrifuge. The pH of the dissolution samples was measured after sampling at 15 and 60 minute time points. The supernatants of the filtered samples were 10 fold diluted of with diluent for HPLC Analysis. At the 65 minute timepoint fasted state simulated intestinal fluid FaSSIF equilibrated at 37° C. was added to the suspension and the suspension was continued to stir at 130 rpm. Aliquots (0.5 ml) were taken at 75, 90, 120 and 180 minute timepoints. Solids were separated by filter centrifugation using centrifuge filter units with a 0.45 μm membrane and spinning at 5000 rpm for 5 minutes on an Eppendorff Model 5418 centrifuge. The pH of the dissolution samples was measured after sampling at 75, 90 and 180 minute time points. […]

DNA-PK = DNA-PK (Homo sapiens, UniProt P78527); experiment: DNA-PK kinase inhibition radiometric assay; type: biochemical; details: 100 μM ATP; competitive tight-binding inhibition fit
Method: Accordingly, compounds of the invention were dissolved in DMSO to make 10 mM initial stock solutions. Serial dilutions in DMSO were then made to obtain the final solutions for the assay.

Compound: N.N.O=C([O-])C1(C(=O)[O-])CCC1.[Pt+2] [carboplatin]
IC50 [1]: 50000 nM

IC50 (MDA-MB-468; MDA-MB-468, read-out: Doxorubicin IC50 (μM), plating density 5000): 0.02 µM | IC50 (MDA-MB-468; MDA-MB-468, read-out: Doxorubicin IC50 (μM), plating density 20000): 0.04 µM | IC50 (MDA-MB-436; MDA-MB-436, read-out: Doxorubicin IC50 (μM), plating density 5000): 0.7 µM | IC50 (MDA-MB-436; MDA-MB-436, read-out: Doxorubicin IC50 (μM), plating density 20000): 0.3 µM | IC50 (HCC-1395): 0.5 µM | IC50 (HCC-1599): 0.2 µM | IC50 (HCC-1937; HCC1937, read-out: Doxorubicin IC50 (μM), plating density 5000): 0.2 µM | IC50 (HCC-1937; HCC1937, read-out: Doxorubicin IC50 (μM), plating density 20000): 0.6 µM
Compound: COc1cccc2c1C(=O)c1c(O)c3c(c(O)c1C2=O)C[C@@](O)(C(=O)CO)C[C@@H]3O[C@H]1C[C@H](N)[C@H](O)[C@H](C)O1 [Doxorubicin, reference compound]

Compound: COc1cc([C@@H]2c3cc4c(cc3[C@@H](O[C@@H]3O[C@@H]5CO[C@@H](C)O[C@H]5[C@H](O)[C@H]3O)[C@H]3COC(=O)[C@H]23)OCO4)cc(OC)c1O [etoposide]
IC50 [1]: 600 nM

Ki (DNA-PK): ~2 nM
Compound: [2H]c1nc(C)nc([2H])c1-c1cc(NC[C@@H](C)c2cccc3c(C(=O)NC)ccnc23)ncn1 [adipic acid co-crystal of Compound (2)]
two stage dissolution concentrations [2]: higher Compound 1 and Compound 2 concentrations than Compound 1 or Compound 2 free form

Compound: CC(=O)O[C@H]1C(=O)[C@@]2(C)[C@H]([C@H](OC(=O)c3ccccc3)[C@]3(O)C[C@H](OC(=O)[C@H](O)[C@@H](NC(=O)c4ccccc4)c4ccccc4)C(C)=C1C3(C)C)[C@]1(OC(C)=O)CO[C@@H]1C[C@@H]2O [paclitaxel]
IC50 [1]: 3 nM

Compound: N.N.[Cl][Pt][Cl] [cisplatin]
IC50 [1]: 1500 nM

Compound: O=c1[nH]cc(F)c(=O)[nH]1 [Compound 5-FU, fluorouracil]
IC50 [1]: 20000 nM

Source: patent US10039761B2, “Co-crystals and pharmaceutical compositions comprising the same” (Vertex Pharmaceuticals Incorporated, priority 2013, dated 2018)
